According to patent US20030148285A1, “Mammalian SIMP protein, gene sequence and uses thereof in cancer therapy” (priority 2001, published 2003):

Experiments:
[1] = system: B6^dom1-specific T-cells (C3H.SW target cells coated with synthetic peptides); details: previously shown; cited from earlier work
[2] = system: B6^dom1-specific T-cells (C3H.SW target cells coated with synthetic peptides); assay: 51Cr release cytotoxicity assay: peptide recognition by C3H.SW anti-C57BL/6 CTLs; assay type: cell-based, mouse; details: effector to target ratio 50:1, FIG. 1
Procedure: Cytotoxic activity was assessed in a standard ^51Cr release assay (Pion et al., 1997. Eur. J. Immunol. 27:421-430). Target blast cells, prepared by culturing C3H.SW spleen cells (3×10^6/ml) with 5 μg/ml of Concanavalin A (Con A; Sigma Chemical Co., St-Louis, Mo.) for 48 hours, were labeled with 100 μCi Na2^51Cr (Dupont Co., Wilmington, Del.) for 90 minutes, sensitized with synthetic peptides for 90 minutes, then mixed with C3H.SW anti-C57BL/6 effector cells at a 50:1 effector to target ratio. Cells were then incubated for 4 hours at 37° C. in a humidified atmosphere of 5% CO2. Afterwards, supernatants were harvested and counted in a gamma counter. All tests were done in triplicate. Spontaneous release was below 15%. Results are expressed as a percentage of specific lysis calculated as follows: % specific lysis=100×(experimental release−spontaneous release)/(maximum release−spontaneous release).

AAPDNRETF
Recognition by B6^dom1-specific T-cells [1]: recognised by B6^dom1-specific T-cells

KAPDNRDTL [synthetic peptide; product of the putative B6^dom1 allele found in B6^dom1− strains of mice]
Recognition by B6^dom1-specific CTLs (specific lysis of peptide-coated C3H.SW targets) ([2]; peptide even at 10^−5 M): not recognised

KAPDNRETL [synthetic peptide]
Recognition by B6^dom1-specific CTLs (specific lysis of peptide-coated C3H.SW targets) ([2]; peptide at 10^−8 M): recognised more efficiently than the AAPDNRETF peptide
